According to patent publication US11208421B2, “2-carboxypenam compound or salt thereof, pharmaceutical composition containing novel 2-carboxypenam compound or salt thereof, and applications thereof” (priority 2017, dated 2021):
In brackets after ≈: the same amount, converted by molar mass.

How the values were obtained:
Type in all cases: cell-based
[1] = test system: Pseudomonas aeruginosa strain ATCC 27853; assay: Antibacterial activity evaluation test (MIC), broth microdilution, strain ATCC 27853; settings: for MIC Pseudomonas aeruginosa strain ATCC 27853: cation-adjusted Mueller-Hinton medium supplemented with 20 M of apotransferrin, 35° C., 16 to 20 hours; for MIC: Pseudomonas aeruginosa, ATCC27853, read-out: MIC Pseudomonas aeruginosa strain ATCC 27853
Procedure: (§1) The minimum inhibitory concentration (MIC) was measured according to the Clinical and Laboratory Standards Institute (CLSI) standard method by using the following broth microdilution method.
(§2) As bacteria, a Pseudomonas aeruginosa strain ATCC 27853, a Pseudomonas aeruginosa AmpC derepression mutant strain S-3028, and a Pseudomonas aeruginosa IMP-1-producing strain S-2838 were used.
(§3) The Pseudomonas aeruginosa AmpC-derepression mutant strain S-3028 or the Pseudomonas aeruginosa IMP-1-producing strain S-2838 was cultured on a Mueller Hinton agar medium overnight, thereby preparing test bacterial cells. The obtained test bacterial cells were scraped off, suspended to yield 0.5 McFarland equivalence, and diluted 10-fold to obtain an inoculum. A cation-adjusted Mueller Hinton medium containing a test compound was inoculated with 0.0005 mL of the inoculum, and the cells were cultured at 35° C. for 16 to 20 hours. The minimum drug concentration at which the growth of bacteria was not visually observed was defined as MIC.
The MIC of the Pseudomonas aeruginosa ATCC strain 27853 was measured in the same manner as described above by using a cation-adjusted Mueller-Hinton medium supplemented with […] of apotransferrin as a final concentration.

[2] = test system: Pseudomonas aeruginosa AmpC derepression mutant strain S-3028; assay: Antibacterial activity evaluation test (MIC), broth microdilution, AmpC derepression mutant strain S-3028; settings: for MIC Pseudomonas aeruginosa strain S-3028: AmpC derepression mutant, cation-adjusted Mueller Hinton medium, 35° C., 16 to 20 hours; for MIC: Pseudomonas aeruginosa, read-out: MIC Pseudomonas aeruginosa strain S-3028
Procedure: as §1, §2, §3

[3] = test system: Pseudomonas aeruginosa IMP-1-producing strain S-2838; assay: Antibacterial activity evaluation test (MIC), broth microdilution, IMP-1-producing strain S-2838; settings: for MIC Pseudomonas aeruginosa strain S-2838: IMP-1-producing strain, cation-adjusted Mueller Hinton medium, 35° C., 16 to 20 hours; for MIC: Pseudomonas aeruginosa, read-out: MIC Pseudomonas aeruginosa strain S-2838
Procedure: as §1, §2, §3

Compound | MIC Pseudomonas aeruginosa strain ATCC 27853 [1] | MIC Pseudomonas aeruginosa strain S-3028 [2] | MIC Pseudomonas aeruginosa strain S-2838 [3] | MIC [1] | MIC [2] | MIC [3]
CN(CCS[C@]1(C(=O)O)CN2C(=O)[C@@H](NC(=O)/C(=N\OC(C)(C)C(=O)O)c3csc(N)n3)[C@H]2S1)NC(=O)c1ccc(O)c(O)c1Cl [Example 22, (3R,5R,6R)-6-((Z)-2-(2-aminothiazol-4-yl)-2-(((2-carboxypropan-2-yl)oxy)imino)acetamide)-3-((2-(2-(2-chloro-3,4-dihydroxybenzoyl)-1-methylhydrazinyl)ethyl)thio)-7-oxo-4-thia-1-azabicyclo[3.2.0]heptane-3-carboxylic acid] | 0.125 µg/mL (≈ 0.174 µM) | 8 µg/mL (≈ 11.1 µM) | 2 µg/mL (≈ 2.78 µM) | – | – | –
CO[C@@H](CNC(=O)/C(=N/NC(N)=O)c1ccc(O)c(O)c1Cl)CS[C@]1(C(=O)O)CN2C(=O)[C@@H](NC(=O)/C(=N\OC(C)(C)C(=O)O)c3csc(N)n3)[C@H]2S1 [Example 16, (3R,5R,6R)-6-((Z)-2-(2-aminothiazole-4-yl)-2-(((2-carboxypropan-2-yl)oxy)imino)acetamide)-3-(((S)-3-((E)-2-(2-carbamoylhydrazono)-2-(2-chloro-3,4-dihydroxyphenyl)acetamide)-2-methoxypropyl)thio)-7-oxo-4-thia-1-azabicyclo[3.2.0]heptane-3-carboxylic acid] | – | – | – | 0.5 µg/mL (≈ 0.611 µM) | 16 µg/mL (≈ 19.6 µM) | 8 µg/mL (≈ 9.78 µM)
CC(C)(O/N=C(\C(=O)N[C@@H]1C(=O)N2C[C@](SCCNNC(=O)c3ccc(O)c(O)c3Cl)(C(=O)O)S[C@H]12)c1csc(N)n1)C(=O)O [Example 28, (3R,5R,6R)-6-((Z)-2-(2-aminothiazol-4-yl)-2-(((2-carboxypropan-2-yl)oxy)imino)acetamide)-3-((2-(2-(2-chloro-3,4-dihydroxybenzoyl)hydradienyl)ethyl)thio)-7-oxo-4-thia-1-azabicyclo[3.2.0]heptane-3-carboxylic acid] | 1 µg/mL (≈ 1.42 µM) | 1 µg/mL (≈ 1.42 µM) | 1 µg/mL (≈ 1.42 µM) | – | – | –
CC(C)(O/N=C(\C(=O)N[C@@H]1C(=O)N2C[C@](SC[C@H]3COCCN3C(=O)c3ccc(O)c(O)c3Cl)(C(=O)O)SC12)c1csc(N)n1)C(=O)O (stereo partly drawn) [Example 20, (3R,5R,6R)-6-((Z)-2-(2-aminothiazol-4-yl)-2-(((2-carboxypropan-2-yl)oxy)imino)acetamide)-3-((((R)-4-(2-chloro-3,4-dihydroxybenzoyl)morpholin-3-yl)methyl)thio)-7-oxo-4-thia-1-azabicyclo[3.2.0]heptane-3-carboxylic acid] | – | – | – | 0.5 µg/mL (≈ 0.671 µM) | 4 µg/mL (≈ 5.37 µM) | 4 µg/mL (≈ 5.37 µM)
CC(C)(O/N=C(\C(=O)N[C@@H]1C(=O)N2C[C@](SC3CN(C(=O)/C(=N\O)c4ccc(O)c(O)c4Cl)C3)(C(=O)O)SC12)c1csc(N)n1)C(=O)O (stereo partly drawn) [Example 5, (3R,5R,6R)-6-((Z)-2-(2-aminothiazol-4-yl)-2-(((2-carboxypropan-2-yl)oxy)imino)acetamide)-3-((1-((Z)-2-(2-chloro-3,4-dihydroxyphenyl)-2-(hydroxyimino)acetyl)azetidin-3-yl)thio)-7-oxo-4-thia-1-azabicyclo[3.2.0]heptane-3-carboxylic acid] | – | – | – | ≤ 0.0625 µg/mL | 8 µg/mL (≈ 10.8 µM) | 16 µg/mL (≈ 21.5 µM)
CC(C)(O/N=C(\C(=O)N[C@@H]1C(=O)N2C[C@](SCCNC(=O)/C(=N\NC(N)=O)c3cc(O)c(O)cc3Cl)(C(=O)O)S[C@H]12)c1csc(N)n1)C(=O)O [Example 24, (3R,5R,6R)-6-((Z)-2-(2-aminothiazol-4-yl)-2-(((2-carboxypropan-2-yl)oxy)imino)acetamide)-3-((2-((Z)-2-(2-carbamoylhydrazinylidene)-2-(2-chloro-4,5-dihydroxyphenyl)acetamide)ethyl)thio)-7-oxo-4-thia-1-azabicyclo[3.2.0]heptane-3-carboxylic acid] | – | – | – | 0.5 µg/mL (≈ 0.646 µM) | 8 µg/mL (≈ 10.3 µM) | 4 µg/mL (≈ 5.17 µM)
CC(C)(O/N=C(\C(=O)N[C@@H]1C(=O)N2C[C@](SCCNC(=O)c3ccc(O)c(O)c3Cl)(C(=O)O)SC12)c1csc(N)n1)C(=O)O (stereo partly drawn) [Example 18, (3R,5R,6R)-6-((Z)-2-(2-aminothiazol-4-yl)-2-(((2-carboxypropan-2-yl)oxy)imino)acetamide)-3-((2-(2-chloro-3,4-dihydroxybenzamide)ethyl)thio)-7-oxo-4-thia-1-azabicyclo[3.2.0]heptane-3-carboxylic acid] | – | – | – | 0.125 µg/mL (≈ 0.181 µM) | 2 µg/mL (≈ 2.9 µM) | 4 µg/mL (≈ 5.8 µM)
CC(C)(O/N=C(\C(=O)N[C@@H]1C(=O)N2C[C@](SCCNC(=O)/C(=N\NC(N)=O)c3ccc(O)c(O)c3Cl)(C(=O)O)S[C@H]12)c1csc(N)n1)C(=O)O [Example 12] | – | – | – | ≤ 0.0625 µg/mL | 16 µg/mL (≈ 20.7 µM) | 4 µg/mL (≈ 5.17 µM)
COC[C@H](CS[C@]1(C(=O)O)CN2C(=O)[C@@H](NC(=O)/C(=N\OC(C)(C)C(=O)O)c3csc(N)n3)[C@H]2S1)NC(=O)C(=O)c1ccc(O)c(O)c1Cl [Example 3, (3R,5R,6R)-6-((Z)-2-(2-aminothiazol-4-yl)-2-(((2-carboxypropan-2-yl)oxy)imino)acetamide)-3-(((R)-2-(2-(2-chloro-3,4-dihydroxyphenyl)-2-oxoacetamide)-3-methoxypropyl)thio)-7-oxo-4-thia-1-azabicyclo[3.2.0]heptane-3-carboxylic acid] | ≤0.0625 µg/mL | 0.5 µg/mL (≈ 0.657 µM) | 1 µg/mL (≈ 1.31 µM) | – | – | –
CC(C)(O/N=C(\C(=O)N[C@@H]1C(=O)N2C[C@](SCCNC(=O)/C(=N/N3CCOCC3)c3ccc(O)c(O)c3Cl)(C(=O)O)S[C@H]12)c1csc(N)n1)C(=O)O [Example 10, (3R,5R,6R)-6-((Z)-2-(2-aminothiazole-4-yl)-2-(((2-carboxypropan-2-yl)oxy)imino)acetamide)-3-((2-((E)-2-(2-chloro-3,4-dihydroxyphenyl)-2-(morpholinoimino)acetamide)ethyl)thio)-7-oxo-4-thia-1-azabicyclo[3.2.0]heptane-3-carboxylic acid] | – | – | – | 1 µg/mL (≈ 1.25 µM) | > 128 µg/mL | 32 µg/mL (≈ 39.9 µM)
COC[C@H](CS[C@]1(C(=O)O)CN2C(=O)[C@@H](NC(=O)/C(=N\OC(C)(C)C(=O)O)c3csc(N)n3)[C@H]2S1)NC(=O)/C(=N\NC(N)=O)c1ccc(O)c(O)c1Cl [Example 17, (3R,5R,6R)-6-((Z)-2-(2-aminothiazol-4-yl)-2-(((2-carboxypropane-2-yl)oxy)imino)acetamide)-3-(((R)-2-(2-(2-carbamoylhydrazono)-2-(2-chloro-3,4-dihydroxyphenyl)acetamide)-3-methoxypropyl)thio)-7-oxo-4-thia-1-azabicyclo[3.2.0]heptane-3-carboxylic acid] | – | – | – | ≤ 0.0625 µg/mL | 8 µg/mL (≈ 9.78 µM) | 8 µg/mL (≈ 9.78 µM)
CC(C)(O/N=C(\C(=O)N[C@@H]1C(=O)N2C[C@](SCCNC(=O)/C(=N\O)c3ccc(O)c(O)c3Cl)(C(=O)O)S[C@H]12)c1csc(N)n1)C(=O)O [Example 4, (3R,5R,6R)-6-((Z)-2-(2-aminothiazol-4-yl)-2-(((2-carboxypropan-2-yl)oxy)imino)acetamide)-3-((2-((Z)-2-(2-chloro-3,4-dihydroxyphenyl)-2-(hydroxyimino)acetamide)ethyl)thio)-7-oxo-4-thia-1-azabicyclo[3.2.0]heptane-3-carboxylic acid] | ≤0.0625 µg/mL | 8 µg/mL (≈ 10.9 µM) | 32 µg/mL (≈ 43.7 µM) | – | – | –
